Counter-ions that a name gives are not always drawn. Blank lines part the entries; values can stand above or below the compound they belong to.
What was measured:
Format in all cases: physicochemical
[1] = Solubility estimates in different solvents; conditions: thermodynamic from solid, ambient temperature, visual estimate
Experimental: A weighed sample (typically about 20 mg) of Compound I form A was treated with aliquots of the test solvent at ambient temperature. The aliquot volumes were typically 250 μL. Periodically, the mixture was sonicated between additions to facilitate dissolution. Complete dissolution of the test material was determined by visual inspection. Solubilities were estimated from these experiments based on the total solvent used to provide complete dissolution. […] If dissolution occurred after the last aliquot was added then solubility is expressed as “greater than or equal to” (≧). The solubility values for Compound I (Table 4) have been rounded to the nearest whole number. The true equilibrium solubilities for the compound may be different than the values provided here because of the use of solvent aliquots that were too large or due to a slow rate of dissolution.

[2] = Moisture sorption/desorption analysis; conditions: for solid form of post moisture sorption/desorption sample by XRPD: after 5%-95%-5% RH cycle; for molecules of water present for every molecule of compound: at 95% RH, calculated from desorption weight change and molecular weight; for Weight Change: 25 C
Experimental: Moisture sorption/desorption data were collected on a VTI SGA-100 Vapor Sorption Analyzer. Sorption and desorption data were collected over a range of 5% to 95% relative humidity (RH) at 10% RH intervals under a nitrogen purge. Sodium chloride (NaCl) and polyvinylpyrrolidone (PVP) were used as the calibration standards. Equilibrium criteria used for analysis were less than 0.0100% weight change in 5 minutes, with a maximum equilibration time of 180 minutes if the weight criterion was not met. The plotted data that contain the percent weight change values at various RH intervals are relative to the initial weight of the sample. The plotted data have not been corrected for the initial moisture content. However, the weight gain data provided in the tables for the various relative humidity ranges are calculated using the sample weight at the beginning of the particular RH event as the initial weight. In particular, the equilibration event wt. % change from initial wt. to 5% RH was calculated as [(wt at 5% RH−initial wt.)/initial wt.]*100; and the sorption event wt. % change from 5% RH to 95% RH was calculated as [(wt. at 95% RH−wt at 5% RH)/wt at 5% RH]*100; and the desorption event wt. % change from 95% RH to 5% RH was calculated as [(wt. at 5% RH−wt at 95% RH)/wt at 95% RH]*100. This type of analysis permits direct comparison of the experimental weight changes to the theoretical values predicted for the inter-conversion of anhydrates to hydrated forms.

[3] = Relative humidity (RH) stress of solids, XRPD; conditions: for XRPD Pattern after RH stress: ambient, 21 d
Experimental: Relative Humidity (RH) Stress: Open vials containing solid samples were placed inside chambers containing saturated salt solutions along with a small amount of the undissolved salt. The chambers were sealed and allowed to stand at ambient temperature for several weeks. Samples were analyzed by X-ray powder diffraction (XRPD) immediately after removing the sample from the RH chamber. The RH values for these salt solutions were obtained from an ASTM standard. See a) “Preparation and Use of Relative Humidity Chambers” SSCI Method MTD 032.01 Mar. 3, 2003; and b) “Standard Practice for Maintaining Constant Relative Humidity by Means of Aqueous Solutions” ASTM Standard E 104-02 (2002).

[4] = Slurry interconversion studies in methanol; conditions: room temperature; for XRPD Result after slurry: slurry time 5 days
Experimental: Slurry Experiments: Enough Compound I was added to a given solvent so that undissolved solids were present. The mixture was then agitated in a sealed vial at ambient temperature using either an orbital shaker or a rotating wheel. After several days the solids were isolated by vacuum filtration and allowed to dry at ambient temperature in the fume hood with the cap for the sample vial loosened.
In order to determine the relative stability of the polymorphs Compound I form A was slurried in separate experiments with roughly equal amounts of forms B, C and E in methanol at room temperature. After 12 days the solids were isolated and form A was recovered as the exclusive solid phase (Table 6). In addition to these experiments, slurries of forms B, C and D in the absence of other solid phases provided form A when slurried for 5 days in methanol at room temperature. […] It should be noted that the hydration states of these solid phases may be different for the different forms, which precludes an analysis of the true thermodynamic stability ordering through slurry experiments.

[5] = Thermal analysis (TGA/DSC), thermal stability
Experimental: Thermogravimetric analyses (TGA) were carried out on a TA Instruments 2950 thermogravimetric analyzer. The calibration standards were nickel and Alumel™. Samples were placed in an aluminum sample pan, inserted into the TG furnace, and accurately weighed. The samples were heated in a stream of nitrogen at a rate of 10° C./min. The temperature of the furnace was equilibrated at 25° C. prior to the analysis of the samples. The percent mass loss values provided in the tables are rounded to the nearest 0.1%.
Differential scanning calorimetry (DSC) analyses were carried out on a TA Instruments differential scanning calorimeter 2920. Accurately weighed samples were placed in either crimped pans, crimped pans with manual pinhole or uncrimped pans to allow for pressure release. Each sample was heated under nitrogen at a rate of 10° C./min to 350° C. Indium metal was used as the calibration standard. Temperatures are reported at the transition maxima and reported to one decimal place, and the integrated events are expressed in J/g and rounded to the nearest whole number.

[6] = desorption, 95% RH to about 5% RH, Tables 2A, 2B (relative to weight at start of the event)
[7] = equilibration, initial weight to about 5% RH, Tables 2A, 2B (relative to weight at start of the event)
[8] = sorption, 5% RH to about 95% RH, Tables 2A, 2B (relative to weight at start of the event)
[9] = after desorption at about 5% RH, Tables 2C-2F (values fit change relative to initial weight)
[10] = after equilibration at about 5% RH, Tables 2C-2F (values fit change relative to initial weight)
[11] = after sorption at about 95% RH, Tables 2C-2F (values fit change relative to initial weight)

Compound: N#Cc1ccccc1Cn1c(N2CCC[C@@H](N)C2)ncc(F)c1=O [Form A, tartrate salt of 2-[2-(3-(R)-amino-piperidin-1-yl)-5-fluoro-6-oxo-6H-pyrimidin-1-ylmethyl]-benzonitrile]
solubility ([1]; organic solvent or mixture, 1,4-dioxane): < 3000 µg/mL | solubility ([1]; organic solvent or mixture, acetone): < 4000 µg/mL | solubility ([1]; organic solvent or mixture, acetonitrile): < 3000 µg/mL | solubility ([1]; organic solvent or mixture, chloroform): < 4000 µg/mL | solubility ([1]; organic solvent or mixture, dichloromethane): < 3000 µg/mL | solubility ([1]; organic solvent or mixture, diisopropyl ether): < 3000 µg/mL | solubility ([1]; organic solvent or mixture, dimethylformamide): ≥ 81000 µg/mL | solubility ([1]; organic solvent or mixture, ethanol): < 3000 µg/mL | solubility ([1]; organic solvent or mixture, ethyl acetate): < 3000 µg/mL | solubility ([1]; organic solvent or mixture, hexafluoroisopropanol): ≥ 80000 µg/mL | solubility ([1]; organic solvent or mixture, hexanes): < 3000 µg/mL | solubility ([1]; organic solvent or mixture, isopropanol): < 3000 µg/mL | solubility ([1]; organic solvent or mixture, isopropyl acetate): < 3000 µg/mL | solubility ([1]; organic solvent or mixture, methanol): ≥ 16000 µg/mL | solubility ([1]; organic solvent or mixture, methyl ethyl ketone): < 3000 µg/mL | solubility ([1]; organic solvent or mixture, nitromethane): < 3000 µg/mL | solubility ([1]; organic solvent or mixture, tetrahydrofuran): < 3000 µg/mL | solubility ([1]; organic solvent or mixture, toluene): < 3000 µg/mL | solubility ([1]; organic solvent or mixture, trifluoroethanol): ≥ 81000 µg/mL | solubility ([1]; water): ≥ 41000 µg/mL | hydrate type from moisture sorption/desorption analysis [2]: variable hydrate | solid form of post moisture sorption/desorption sample by XRPD [2]: form A | molecules of water present for every molecule of compound [2]: approximately 1 | Weight Change [2, 6]: −3.77% | Weight Change [2, 7]: −1.44% | initial weight loss from ambient conditions to 5% RH ([2]; moisture sorption/desorption): approximately 1.4% | weight gain between 5% and 95% RH ([2]; moisture sorption/desorption): about 4.00% | Weight Change [2, 8]: 4.00% | XRPD Pattern after RH stress ([3]; 58% RH stress): Form A | XRPD Pattern after RH stress ([3]; 75% RH stress): Form A | XRPD Pattern after RH stress ([3]; 84% RH stress): Form A | phase change upon RH stress ([3]; various RH conditions, room temperature, several weeks): none of these samples had undergone a phase change | relative stability of polymorphs [4]: more stable than form B, C, D, or E | XRPD Pattern after heating ([5]; TGA to 150° C. & recovered): Form A | thermally stable up to ([5]; thermal analysis): about 200 °C

Compound: N#Cc1ccccc1Cn1c(N2CCC[C@@H](N)C2)ncc(F)c1=O [Form B, tartrate salt of 2-[2-(3-(R)-amino-piperidin-1-yl)-5-fluoro-6-oxo-6H-pyrimidin-1-ylmethyl]-benzonitrile]
solid form of post moisture sorption/desorption sample by XRPD [2]: form C | Weight Change [2, 6]: −6.30% | Weight Change [2, 7]: −0.50% | initial weight loss from ambient conditions to 5% RH ([2]; moisture sorption/desorption): approximately 0.5% | weight gain between 5% and 95% RH ([2]; moisture sorption/desorption): 6.6% | Weight Change [2, 8]: 6.64% | XRPD Result after slurry [4]: Form A

Compound: N#Cc1ccccc1Cn1c(N2CCC[C@@H](N)C2)ncc(F)c1=O [amorphous Form 2, tartrate salt of 2-[2-(3-(R)-amino-piperidin-1-yl)-5-fluoro-6-oxo-6H-pyrimidin-1-ylmethyl]-benzonitrile]
Weight Change [2, 9]: 0.433% | Weight Change [2, 10]: 0.156% | Weight Change [2, 11]: 6.013%

Second part, led by results:

solid form of post moisture sorption/desorption sample by XRPD [2]: form C | Weight Change [2, 9]: −0.899% | Weight Change [2, 10]: −0.873% | Weight Change [2, 11]: 4.744% | molecules of water present for every molecule of compound [2]: approximately 1.5 | initial weight loss from ambient conditions to 5% RH ([2]; moisture sorption/desorption): approximately 0.9% | weight gain between 5% and 95% RH ([2]; moisture sorption/desorption): 5.7% | XRPD Result after slurry [4]: Form A
Compound: N#Cc1ccccc1Cn1c(N2CCC[C@@H](N)C2)ncc(F)c1=O [Form C, tartrate salt of 2-[2-(3-(R)-amino-piperidin-1-yl)-5-fluoro-6-oxo-6H-pyrimidin-1-ylmethyl]-benzonitrile]

XRPD Result after slurry [4]: Form A
Compound: N#Cc1ccccc1Cn1c(N2CCC[C@@H](N)C2)ncc(F)c1=O [Form D, tartrate salt of 2-[2-(3-(R)-amino-piperidin-1-yl)-5-fluoro-6-oxo-6H-pyrimidin-1-ylmethyl]-benzonitrile]

solid form of post moisture sorption/desorption sample by XRPD [2]: form C | Weight Change [2, 9]: 0.098% | Weight Change [2, 10]: −0.352% | Weight Change [2, 11]: 8.801% | initial weight loss from ambient conditions to 5% RH ([2]; moisture sorption/desorption): approximately 0.4% | weight gain between 5% and 95% RH ([2]; moisture sorption/desorption): 9.2%
Compound: N#Cc1ccccc1Cn1c(N2CCC[C@@H](N)C2)ncc(F)c1=O [Form E, tartrate salt of 2-[2-(3-(R)-amino-piperidin-1-yl)-5-fluoro-6-oxo-6H-pyrimidin-1-ylmethyl]-benzonitrile]

Weight Change [2, 9]: 0.868% | Weight Change [2, 10]: −0.054% | Weight Change [2, 11]: 13.393% | initial weight gain from ambient conditions to 5% RH ([2]; moisture sorption/desorption): approximately 0.2% | weight gain between 5% and 95% RH ([2]; moisture sorption/desorption): 5.8% | weight gain between 5% and 95% RH ([2]; moisture sorption/desorption, listed as freeze dried Compound I): ~13.5% | XRPD Pattern after RH stress ([3]; 6% RH stress): Amorphous | XRPD Pattern after RH stress ([3]; 33% RH stress): Amorphous | XRPD Pattern after RH stress ([3]; 58% RH stress): Amorphous | XRPD Pattern after RH stress ([3]; 75% RH stress): Form B | XRPD Pattern after RH stress ([3]; 84% RH stress): Pattern F
Compound: N#Cc1ccccc1Cn1c(N2CCC[C@@H](N)C2)ncc(F)c1=O [amorphous Form 1, tartrate salt of 2-[2-(3-(R)-amino-piperidin-1-yl)-5-fluoro-6-oxo-6H-pyrimidin-1-ylmethyl]-benzonitrile]
solid form of post moisture sorption/desorption sample by XRPD [2]: tentatively identified as containing form A

Reference: US20070066636A1, “POLYMORPHS OF TARTRATE SALT OF 2-[2-(3-(R)-AMINO-PIPERIDIN-1-YL)-5-FLUORO-6-OXO-6H-PYRIMIDIN-1-YLMETHYL]-BENZONITRILE AND METHODS OF USE THEREFOR” (priority 2005, published 2007)
